Measurements from patent US20120178646A1, “HIGH THROUGHPUT METHOD AND SYSTEM FOR IN VIVO SCREENING” (ZF SCREENS B.V., priority 2009, published 2012).

System: Mycobacterium marinum strain E11
Test: Granuloma formation in zebrafish larvae after intrayolk injection with Mycobacterium marinum (COPAS XL fluorescence profiling)
Format: in vivo
Conditions: zebrafish embryos injected intrayolk at 16- to 256-cell stage, refreshed daily, screened at 5 dpi, confirmed by stereo fluorescence microscopy

O=S(=O)(NCCNC/C=C/c1ccc(Br)cc1)c1cccc2cnccc12 [H89]
presence of CherryFP-labeled granulomas in larvae (exposed from 2 dpi to 10 μM in 0.5% DMSO): did not contain granulomas

CC[C@@H](CO)NCCN[C@@H](CC)CO [ethambutol]
presence of CherryFP-labeled granulomas in larvae (exposed from 2 dpi to 2 mM in water): did not contain granulomas
